Test results as given in ChEMBL document CHEMBL4052601, “Glycybridins A-K, Bioactive Phenolic Compounds from Glycyrrhiza glabra” (J Nat Prod, 2017).
The source made the active and inactive calls. The calls are words filed in the database; no cut-off is given here.

Tests used:
MCF7 = experiment: Antiproliferative activity against human MCF7 cells at 10 uM after 24 hrs by MTS assay relative to control; type: functional; settings: MCF7, 24 h
[1] = target: T1, Tyrosinase (Homo sapiens) (UniProt P14679); settings: at 10 µM
T1 sequence (whole entry): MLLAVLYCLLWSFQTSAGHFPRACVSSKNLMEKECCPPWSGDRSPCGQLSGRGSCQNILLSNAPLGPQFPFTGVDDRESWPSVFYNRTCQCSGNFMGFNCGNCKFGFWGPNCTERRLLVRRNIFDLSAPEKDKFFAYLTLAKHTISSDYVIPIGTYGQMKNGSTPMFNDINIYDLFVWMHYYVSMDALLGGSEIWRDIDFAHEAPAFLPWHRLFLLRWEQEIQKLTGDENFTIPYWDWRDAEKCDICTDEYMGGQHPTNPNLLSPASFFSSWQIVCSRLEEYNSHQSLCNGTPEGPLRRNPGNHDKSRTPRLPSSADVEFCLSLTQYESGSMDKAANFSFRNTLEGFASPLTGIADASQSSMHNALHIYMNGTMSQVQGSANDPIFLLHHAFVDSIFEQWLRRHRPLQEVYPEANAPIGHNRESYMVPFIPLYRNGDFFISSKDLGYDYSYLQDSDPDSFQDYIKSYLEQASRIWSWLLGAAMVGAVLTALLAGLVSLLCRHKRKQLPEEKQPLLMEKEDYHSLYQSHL
Description: Inhibition of tyrosinase (unknown origin) using L-tyrosine as substrate at 10 uM preincubated for 15 mins followed by substrate addition relative to control

Homo sapiens = experiment: Inhibition of LPS-induced NF-kappaB (unknown origin) transactivation expressed in human SW480 cells at 10 uM administered 1 hr after LPS stimulation measured after 6 hrs by luciferase reporter gene assay relative to control; type: cell-based
Tyrosinase [2] = target: T2, Tyrosinase (Homo sapiens, UniProt P14679); experiment: Inhibition of tyrosinase (unknown origin) using L-tyrosine as substrate preincubated for 15 mins followed by substrate addition
T2 sequence (P14679 whole entry): T1 sequence (whole entry)

RAW264.7 [3] = experiment: Antiinflammatory activity against mouse RAW264.7 cells assessed as inhibition of LPS-induced nitric oxide production at 10 uM after 24 hrs by Griess assay relative to control; type: functional; settings: RAW264.7, 24 h
RAW264.7 [4] = experiment: Antiinflammatory activity against mouse RAW264.7 cells assessed as inhibition of LPS-induced nitric oxide production after 24 hrs by Griess assay; type: functional, cell-based; settings: RAW264.7, 24 h
A549 [5] = experiment: Antiproliferative activity against human A549 cells at 10 uM after 24 hrs by MTS assay relative to control; type: functional; settings: A549, 24 h
SW480 = experiment: Antiproliferative activity against human SW480 cells at 10 uM after 24 hrs by MTS assay relative to control; type: functional; settings: SW480, 24 h
HepG2 = experiment: Antiproliferative activity against human HepG2 cells at 10 uM after 24 hrs by MTS assay relative to control; type: functional; settings: HepG2, 24 h
[6] = target: T3, Tyrosine-protein phosphatase non-receptor type 1 (Homo sapiens) (UniProt P18031); settings: at 10 µM
T3 sequence (whole entry): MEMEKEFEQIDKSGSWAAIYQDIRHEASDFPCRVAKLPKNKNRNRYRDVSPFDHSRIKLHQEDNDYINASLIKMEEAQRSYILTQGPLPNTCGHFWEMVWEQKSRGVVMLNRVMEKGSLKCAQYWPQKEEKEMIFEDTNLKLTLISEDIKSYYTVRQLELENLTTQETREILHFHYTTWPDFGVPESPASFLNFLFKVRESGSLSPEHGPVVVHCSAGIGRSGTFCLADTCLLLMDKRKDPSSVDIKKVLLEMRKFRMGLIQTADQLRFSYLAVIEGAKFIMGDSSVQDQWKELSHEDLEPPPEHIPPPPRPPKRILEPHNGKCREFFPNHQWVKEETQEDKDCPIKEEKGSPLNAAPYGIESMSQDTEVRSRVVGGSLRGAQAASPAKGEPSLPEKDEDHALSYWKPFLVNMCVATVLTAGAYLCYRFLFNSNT
Description: Inhibition of recombinant human PTP1B using pNPP as substrate at 10 uM after 30 mins relative to control

[7] = Inhibition of LPS-induced NF-kappaB (unknown origin) transactivation expressed in human SW480 cells administered 1 hr after LPS stimulation measured after 6 hrs by luciferase reporter gene assay; type: cell-based
RAW264.7 [8] = experiment: Antiinflammatory activity against mouse RAW264.7 cells assessed as inhibition of LPS induced nitric oxide production at 20 uM […] followed by LPS challenge […] relative to control; type: functional
[9] = target: T4, Nuclear factor erythroid 2-related factor 2 (Homo sapiens) (UniProt Q16236); experiment: Activation of Nrf2 (unknown origin) expressed in human HepG2 cells after 6 hrs by ARE-driven luciferase reporter gene assay relative to control; type: cell-based
T4 sequence (whole entry): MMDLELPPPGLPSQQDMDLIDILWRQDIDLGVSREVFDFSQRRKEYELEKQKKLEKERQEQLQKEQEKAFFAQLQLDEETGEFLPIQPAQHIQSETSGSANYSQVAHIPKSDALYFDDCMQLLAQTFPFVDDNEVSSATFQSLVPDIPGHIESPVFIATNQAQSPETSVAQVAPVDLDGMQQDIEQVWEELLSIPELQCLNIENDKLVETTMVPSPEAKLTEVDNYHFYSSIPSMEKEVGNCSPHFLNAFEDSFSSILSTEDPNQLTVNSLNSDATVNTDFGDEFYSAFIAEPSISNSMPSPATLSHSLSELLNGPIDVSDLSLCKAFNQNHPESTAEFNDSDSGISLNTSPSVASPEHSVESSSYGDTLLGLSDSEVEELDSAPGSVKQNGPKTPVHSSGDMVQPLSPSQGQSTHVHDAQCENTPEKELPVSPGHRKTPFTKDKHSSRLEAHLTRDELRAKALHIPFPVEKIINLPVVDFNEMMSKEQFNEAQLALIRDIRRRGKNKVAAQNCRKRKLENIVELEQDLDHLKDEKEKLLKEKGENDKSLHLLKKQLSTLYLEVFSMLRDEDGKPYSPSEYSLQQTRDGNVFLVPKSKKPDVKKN

Mus musculus [10] = experiment: Toxicity in BALB/c nude mouse xenografted with human A549 cells at 5 mg/kg, ip administered as daily dose for 16 days relative to control; type: organism-based; settings: in vivo, 384 h
A549 [11] = experiment: Antitumor activity against human A549 cells xenografted in BALB/c nude mouse assessed as tumor growth inhibition at 5 mg/kg, ip administered as daily dose for 16 days; type: functional, organism-based
Mus musculus [12] = experiment: Toxicity in BALB/c nude mouse xenografted with human A549 cells assessed as change in body weight at 5 mg/kg, ip administered as daily dose for 16 days relative to control; type: organism-based; settings: in vivo, 384 h
[13] = target: T3, Tyrosine-protein phosphatase non-receptor type 1 (Homo sapiens); experiment: (§1) Inhibition of recombinant human PTP1B using pNPP as substrate after 30 mins
[14] = target: T5, Tyrosine-protein phosphatase non-receptor type 1 (Homo sapiens, UniProt P18031); experiment: as §1
T5 sequence (P18031 whole entry): T3 sequence (whole entry)

Tyrosinase [15] = target: T2, Tyrosinase; experiment: Inhibition of tyrosinase (unknown origin) using L-tyrosine as substrate preincubated for 5 mins followed by substrate addition

Row | SMILES | inhibition [1] | IC50 (Tyrosinase [2]) | IC50 (RAW264.7 [4]) | inhibition [6] | IC50 [7] | Activity [9] | inhibition [13] | IC50 [14] | IC50 (Tyrosinase [15]) | inhibition at 10 µM (MCF7) | inhibition (Homo sapiens) | inhibition at 10 µM (RAW264.7 [3]) | inhibition at 10 µM (A549 [5]) | inhibition at 10 µM (SW480) | inhibition at 10 µM (HepG2) | fold change (FC) (RAW264.7 [8]) | Activity (Mus musculus [10]) | TGI (A549 [11]) | Activity (Mus musculus [12])
1 | CC1(C)C=Cc2c(O)ccc(C3=Cc4ccc(O)cc4OC3)c2O1 [GLABRENE] | 76.6% | 7.5 µM | 9.5 µM | 7.1% |  |  |  |  |  | 17.6% | 41.7% | 57.5% | 0% | 30.7% | 25.9% |  |  |  | 
2 | CC1(C)C=Cc2cc(/C=C/C(=O)c3ccc(O)cc3O)ccc2O1 | 4.4% |  |  | 56.5% | 5.5 µM |  |  |  |  | 45.7% | 60.7% | 0% | 2.6% | 7.9% | 11.1% |  |  |  | 
3 | COc1cc([C@@H]2c3cc4c(cc3[C@@H](O[C@@H]3O[C@@H]5CO[C@@H](C)O[C@H]5[C@H](O)[C@H]3O)[C@H]3COC(=O)[C@H]23)OCO4)cc(OC)c1O [ETOPOSIDE] |  |  |  |  |  |  |  |  |  |  |  |  |  |  |  |  | Non-Toxic | Active | Toxic
4 | CC(C)=CCc1c(O)ccc2c1O[C@H](c1ccc3c(c1)C=CC(C)(C)O3)CC2=O | 3.1% |  |  | 71% |  |  | Dose-dependent effect | 5 to 7.9 µM |  | 71.2% | 44.7% | 0% | 0% | 34.8% | 76.5% |  |  |  | 
5 | CC1(C)C=Cc2cc3cc(-c4ccc(O)cc4O)c(=O)oc3cc2O1 | 84% | 2.8 µM |  | 56.9% |  |  |  |  |  | 24.5% | 0% | 21.2% | 0% | 18.1% | 14.4% |  |  |  | 
6 | COc1ccc(C2COc3c(ccc(O)c3CC=C(C)C)C2=O)c(O)c1 (configuration not stated) | 68.3% | 5.1 µM |  | 9.9% |  |  |  |  |  | 8.7% | 0% | 18.1% | 9.4% | 27.8% | 50.3% |  |  |  | 
7 | CC1(C)C=Cc2c(ccc3c2OC[C@@H](c2ccc(O)cc2O)C3)O1 [GLABRIDIN] | 99.7% |  |  | 3.6% |  |  |  |  | 0.09 µM | 8.8% | 0% | 19.8% | 12.7% | 19.8% | 12.1% |  |  |  | 
8 | CC1(C)C=Cc2c(ccc(-c3cc4ccc(O)cc4o3)c2O)O1 | 41.7% |  |  | 22.8% | 6.4 µM |  |  |  |  | 15.1% | 75.8% | 21.6% | 14.4% | 27.7% | 15.6% |  |  |  | 

The next lines start with results.

Row | inhibition [1] | IC50 (Tyrosinase [2]) | IC50 (RAW264.7 [4]) | inhibition [6] | IC50 [7] | Activity [9] | inhibition [13] | IC50 [14] | IC50 (Tyrosinase [15]) | SMILES | inhibition at 10 µM (MCF7) | inhibition (Homo sapiens) | inhibition at 10 µM (RAW264.7 [3]) | inhibition at 10 µM (A549 [5]) | inhibition at 10 µM (SW480) | inhibition at 10 µM (HepG2) | fold change (FC) (RAW264.7 [8]) | Activity (Mus musculus [10]) | TGI (A549 [11]) | Activity (Mus musculus [12])
9 | 10.6% |  |  | 14.5% |  | Dose-dependent effect |  |  |  | C=CC(C)(C)c1cc(/C=C/C(=O)c2ccc(O)cc2)c(OC)cc1O [LICOAGROCHACONE A] | 55.9% | 57.2% | 14.2% | 17.8% | 13.6% | 57.9% | 0.8 |  |  | 
10 | 22.6% |  |  | 17.2% | 6.2 µM |  |  |  |  | CC(C)=CCc1cc(/C=C/C(=O)c2ccc(O)cc2O)ccc1O [LICOAGROCHALCONE A] | 35.4% | 69% | 31.6% | 6.4% | 18.3% | 33.9% |  |  |  | 
11 | 3.2% |  |  | 62.6% |  |  | Dose-dependent effect | 5 to 7.9 µM |  | CC(C)=CCc1cc([C@@H]2CC(=O)c3ccc4c(c3O2)C=CC(C)(C)O4)ccc1O [SHINFLAVANONE] | 36.5% | 15.5% | 11.3% | 5.1% | 25% | 16.9% |  |  |  | 
12 | 2.3% |  |  | 65.1% |  |  | Dose-dependent effect | 5 to 7.9 µM |  | CC(C)=CCc1cc([C@@H]2CC(=O)c3ccc(O)c(CC=C(C)C)c3O2)ccc1O [GLABROL] | 48% | 28.2% | 14.7% | 3.2% | 13.6% | 51.3% |  |  |  | 
